Test results from US20120149080A1, “YEAST PRODUCTION CULTURE FOR THE PRODUCTION OF BUTANOL” (Butamax(TM) Advanced Biofuels LLC, priority 2010, published 2012).

Test system: Saccharomyces cerevisiae BY4743
Experiment: Growth (OD600) of yeast in varying isobutanol concentrations
Type: cell-based
Method: Saccharomyces cerevisiae BY4743 was plated from a freezer vial onto YPD agar (Teknova, Hollister, Calif.; Cat. #Y1000) and incubated overnight at 30° C. Cells from the YPD plate were inoculated into a 25 ml pre-culture of YPD broth (Teknova, Hollister, Calif.; Cat. #Y5000) with an initial OD600 of 0.06 to 0.08. The pre-culture was grown for 7 hours in an aerobic shaker at 30° C. An aliquot of the pre-culture was inoculated into 125 ml of YPD broth, with an initial OD600 of 0.06 to 0.08, and this culture was incubated with aeration at 30° C. for approximately 17 hours.
A starter culture of 150 ml of YPD was inoculated with 5 ml of the overnight culture with an initial OD600 of 0.15. This culture was incubated at 30° C. with aeration for two hours, reaching OD600 of 0.38. At this time (time=0) the cultures were challenged with varying concentrations of isobutanol as given in Table 4 and the OD600 was assayed every hour for 5 h and at 24 h.

With `CC(C)CO` [Isobutanol, isobutanol] the “Growth (OD 600)” value (0.5% isobutanol, 1 hour) was 0.55 OD 600, the “Growth (OD 600)” value (0.5% isobutanol, 2 hours) was 0.74 OD 600 and the “Growth (OD 600)” value (0.5% isobutanol, 3 hours) was 1.12 OD 600. For the same molecule, the “Growth (OD 600)” value (0.5% isobutanol, 4 hours) was 1.69 OD 600, the “Growth (OD 600)” value (0.5% isobutanol, 5 hours) was 2.22 OD 600 and the “Growth (OD 600)” value (0.5% isobutanol, 24 hours) was 5.19 OD 600. For the same molecule, the “Growth (OD 600)” value (0.5% isobutanol, time 0 hours) was 0.38 OD 600, the “Growth (OD 600)” value (0.75% isobutanol, 1 hour) was 0.54 OD 600 and the “Growth (OD 600)” value (0.75% isobutanol, 2 hours) was 0.68 OD 600. For the same molecule, the “Growth (OD 600)” value (0.75% isobutanol, 3 hours) was 1.00 OD 600, the “Growth (OD 600)” value (0.75% isobutanol, 4 hours) was 1.36 OD 600 and the “Growth (OD 600)” value (0.75% isobutanol, 5 hours) was 1.80 OD 600. For the same molecule, the “Growth (OD 600)” value (0.75% isobutanol, 24 hours) was 4.97 OD 600, the “Growth (OD 600)” value (0.75% isobutanol, time 0 hours) was 0.38 OD 600 and the “Growth (OD 600)” value (1% isobutanol, 1 hour) was 0.51 OD 600. The “Growth (OD 600)” value (1% isobutanol, 2 hours) was 0.62 OD 600, the “Growth (OD 600)” value (1% isobutanol, 3 hours) was 0.82 OD 600 and the “Growth (OD 600)” value (1% isobutanol, 4 hours) was 0.96 OD 600. For the same molecule, the “Growth (OD 600)” value (1% isobutanol, 5 hours) was 1.16 OD 600, the “Growth (OD 600)” value (1% isobutanol, 24 hours) was 4.41 OD 600 and the cell concentration reached (1% isobutanol, after overnight growth, one OD600 = 10^7 cells/ml) was “about 4×10^7 cells/ml”. For the same molecule, the “Growth (OD 600)” value (1% isobutanol, time 0 hours) was 0.38 OD 600, the “Growth (OD 600)” value (1.5% isobutanol, 1 hour) was 0.46 OD 600 and the “Growth (OD 600)” value (1.5% isobutanol, 2 hours) was 0.50 OD 600. The “Growth (OD 600)” value (1.5% isobutanol, 3 hours) was 0.53 OD 600, the “Growth (OD 600)” value (1.5% isobutanol, 4 hours) was 0.61 OD 600 and the “Growth (OD 600)” value (1.5% isobutanol, 5 hours) was 0.65 OD 600. For the same molecule, the “Growth (OD 600)” value (1.5% isobutanol, 24 hours) was 1.41 OD 600, the “Growth (OD 600)” value (1.5% isobutanol, time 0 hours) was 0.38 OD 600 and the “Growth (OD 600)” value (2% isobutanol, 1 hour) was 0.43 OD 600. For the same molecule, the “Growth (OD 600)” value (2% isobutanol, 2 hours) was 0.46 OD 600, the “Growth (OD 600)” value (2% isobutanol, 3 hours) was 0.47 OD 600 and the “Growth (OD 600)” value (2% isobutanol, 4 hours) was 0.49 OD 600. For the same molecule, the “Growth (OD 600)” value (2% isobutanol, 5 hours) was 0.50 OD 600, the “Growth (OD 600)” value (2% isobutanol, 24 hours) was 0.90 OD 600 and the “Growth (OD 600)” value (2% isobutanol, time 0 hours) was 0.38 OD 600. The “Growth (OD 600)” value (2.5% isobutanol, 1 hour) was 0.42 OD 600, the “Growth (OD 600)” value (2.5% isobutanol, 2 hours) was 0.42 OD 600 and the “Growth (OD 600)” value (2.5% isobutanol, 3 hours) was 0.42 OD 600. For the same molecule, the “Growth (OD 600)” value (2.5% isobutanol, 4 hours) was 0.45 OD 600, the “Growth (OD 600)” value (2.5% isobutanol, 5 hours) was 0.45 OD 600 and the “Growth (OD 600)” value (2.5% isobutanol, 24 hours) was 0.52 OD 600. For the same molecule, the “Growth (OD 600)” value (2.5% isobutanol, time 0 hours) was 0.38 OD 600.
